In patent US11505586B2, “Interaction of Draxin and γ-netrins” (Max-Planck-Gesellschaft zur Foerderung der Wissenschaften …, priority 2014, dated 2022):

Tests used:
[1] = biological target: T1, Netrin-3 (Homo sapiens, UniProt O00634); experiment: AVEXIS pairwise binding screen, human proteins; conditions: both bait/prey orientations
T1 construct: made in house; host or cells: HEK293-6E (general AVEXIS method)
Description: (§1) AVEXIS was used to test pairwise binding events in both bait/prey orientations between human DRAXIN, the derived 21 amino acid peptide, human Netrin family members, and two representative Netrin receptors (DCC, UNC5B). The Matn4-bait served as an internal prey-protein control and was used for normalization of the A486 nm values; conditioned medium (CM) serves as negative control; n=3.
(§2) To determine the binding specificity of DRAXIN/Netrin interactions, we carried out a pairwise binding screen between human DRAXIN and human Netrin family members. Except Netrin-5, we included all human Netrin family members consisting of two secreted γ-Netrins (Netrin-1 and Netrin-3) and one secreted (Netrin-4) and two GPI-linked β-Netrins (Netrin-G1 and Netrin-G2) in our binding study. Human DRAXIN and a 21 amino acid Netrin binding fragment derived thereof (SEQ ID NO.: 1) bound to Netrin-1 and Netrin-3 but not to human β-Netrin family members (FIG. 13).

[2] = test system: human β-Netrin family members; experiment: AVEXIS pairwise binding screen, human proteins; conditions: Netrin-4, Netrin-G1, Netrin-G2
Description: as §1, §2

[3] = biological target: T2, Netrin-1 (Homo sapiens, UniProt O95631); experiment: AVEXIS pairwise binding screen, human proteins; conditions: both bait/prey orientations
T2 construct: made in house; host or cells: HEK293-6E (general AVEXIS method)
Description: as §1, §2

[4] = test system: Netrin1a; experiment: AVEXIS domain mapping with monomeric prey proteins; type: binding, zebrafish; conditions: monomeric preys
Protocol: For the binding interface mapping experiments we used monomeric prey proteins. The concentration of the monomeric preys has been determined as described for the AVEXIS assay (β ? lactamase enzymatic activity). […] Both prey and bait orientations were tested in the domain mapping screen and two repeats for each orientation had been carried out.
To map down the Netrin1a binding region in DraxinA we generated a series of DraxinA truncations and deletions and tested them for binding against Netrin1a (FIG. 4).

[5] = test system: Netrin1a; experiment: AVEXIS extracellular protein-protein interaction screen; type: binding, zebrafish; conditions: prey against 141 bait proteins, bait against 191 prey proteins
Description: To detect extracellular protein-protein interactions in a high-throughput manner we used the AVEXIS assay as described in Bushell et al. (Bushell et al., 2008) with minor modifications.
In brief: A zebrafish protein library enriched for mainly in neuronal tissues expressed secreted proteins and extracellular domains of cell surface proteins has been assembled. The library consists of prey and bait proteins. Preys are composed of the extracellular domain (ECD) of interest followed by a CD4 tag (rat Cd4d3+4) and a pentamerization domain derived from the rat Comp protein followed by β-lactamase. For the bait proteins the ECDs are fused to a CD4 tag and a biotinylation peptide. […] The proteins in the supernatants have been quantified and normalized.
The bait proteins have been immobilized on streptavidin coated 96 well microtiter plates (one bait/well) and incubated for 1 hour at room temperature. […] Then the absorbance at 486 nm of each well has been measured using a μQuant spectrophotometer (BIO-TEK Instruments, INC). […]
In the primary screen interactions were ‘called’ if the absorbance (at 486 nm) of a well after 1 h of incubation was ≥0.1 and 3 Sigma above the standard deviations of the mean of all wells. All interactions detected in the primary screen have been retested in a validation screen by using independently produced batches of proteins.

[6] = biological target: Islr2; experiment: Vasn/Islr2 interaction used to adjust the AVEXIS screen; type: binding; conditions: Vasn (Slit-like2)/Islr2, in preparation
Protocol: The bait proteins have been immobilized on streptavidin coated 96 well microtiter plates (one bait/well) and incubated for 1 hour at room temperature. After 3 wash steps using HBS as wash buffer the baits have been probed by 50 μl of normalized prey proteins. After one-hour incubation the non-bound preys have been washed away by 2 washes with HBST (0.05% Tween) followed by two HBS washes. Then 50 μl of nitrocefin/well (0.1 mg/ml) has been added and incubated for 1 h at room temperature. Then the absorbance at 486 nm of each well has been measured using a μQuant spectrophotometer (BIO-TEK Instruments, INC). As a positive control for the prey proteins we used the Matn4 ECD as mono-biotinylated bait protein.

T1 sequence (O00634 28-580): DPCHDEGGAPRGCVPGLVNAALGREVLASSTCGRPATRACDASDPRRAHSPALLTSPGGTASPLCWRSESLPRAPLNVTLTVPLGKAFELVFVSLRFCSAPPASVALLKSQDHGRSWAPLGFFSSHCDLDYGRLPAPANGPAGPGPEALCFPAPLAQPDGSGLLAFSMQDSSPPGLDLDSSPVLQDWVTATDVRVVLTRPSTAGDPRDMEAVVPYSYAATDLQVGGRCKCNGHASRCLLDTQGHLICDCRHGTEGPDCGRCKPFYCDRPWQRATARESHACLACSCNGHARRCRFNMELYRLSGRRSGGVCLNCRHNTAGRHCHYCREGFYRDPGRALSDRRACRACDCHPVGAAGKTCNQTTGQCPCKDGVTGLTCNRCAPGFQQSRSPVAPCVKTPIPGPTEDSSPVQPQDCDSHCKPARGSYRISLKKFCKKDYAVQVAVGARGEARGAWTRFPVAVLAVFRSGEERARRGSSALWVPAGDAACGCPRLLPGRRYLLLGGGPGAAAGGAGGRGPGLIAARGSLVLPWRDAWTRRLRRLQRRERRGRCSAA

EVMPTLDMALFDWTDYEDLKP (listed as Homo sapiens) [SEQ ID NO.: 1]
binding to Netrin-3 [1]: bound
binding to human β-Netrin family members [2]: not
binding to Netrin-1 [3]: bound

EVMPTLDMTLFDWTDYEDMKP (Danio rerio) [21aa DraxinA derived peptide, 21aa fragment (aa232-252) of zebrafish DraxinA, as AVEXIS prey or bait]
binding of DraxinA truncations and deletions to Netrin1a [4]: sufficient for the binding
binding specificity against protein library ([5]; listed as DraxinAaa232-252-bait): only interacted with the Ntn1a-prey
binding specificity against protein library ([5]; listed as DraxinAaa232-252-prey): only bound to the Ntn1a-bait

Vasn: Vasn (Slit-like2), binding partner of Islr2, reference weak interaction
Kd [6]: 12 µM
